Assays:
[1] = tested on: interleukin-6 (IL-6); experiment: Experiment 1: blood cytokine (IL-6) in mice with Propionivacterium acnes / lipopolysaccharide induced hepatopathy; assay type: in vivo; conditions: groups B (Brazilian licorice extract of Example 1, 25 mg), D (Chinese licorice extract of Comparative Example 1, 25 mg), F (prednisolone acetate 5 mg); i.p. four times; serum 2 h after LPS
Experimental: (§1) The following experiment was performed to examine the effects of inhibiting cytokine production and lowering GOT activity of the extracts obtained in Example 1 and Comparative Example 1. Male mice of ddy system (Japan SLC, Inc.), each of which weighs 18-20 g, are prepared for the experiment. […] 5 mg of Propionivacterium acnes suspension was injected into the vein of the aforementioned mice respectively, to cause hepatopathy. […] 10 μg of lipopolysaccharide was injected into the vein of the mice in all groups respectively, thirty minutes after the fourth injection in step II (as to the mice in group A, the injection was performed at the same timing as the mice in the other groups). Then, two hours later, blood was taken from all the mice to obtain serum. There was no visible change in weight and food and water consumption of the mice. From the serum obtained in step III, measurement of interleukin-6 (IL-6), which is a kind of cytokine, was performed. For the measurement, a commercially available measurement kit which adopts Fluorescence Linked immuno-Sorbent Assay using fluorescence labeling antibody was used. […] The measured values in Table 1 show IL-6 levels (unit: picogram) per 1 ml serum.

[2] = tested on: glutamic-oxaloacetic transaminase activity (GOT); experiment: Experiment 1: blood GOT activity in mice with Propionivacterium acnes / lipopolysaccharide induced hepatopathy; assay type: in vivo; conditions: groups B (Brazilian licorice extract, 25 mg), D (Chinese licorice extract, 25 mg), F (prednisolone acetate 5 mg); i.p. four times
Experimental: as §1, with “glutamic-oxaloacetic transaminase activity (GOT)” for “measurement of interleukin-6 (IL-6), which is a kind of cytokine,”, “measured.” for “performed.”, “Enzyme” for “Fluorescence”, “enzyme” for “fluorescence”, “Units.” for “The measured values in Table 1 show IL-6 levels (unit: picogram) per 1 ml serum.”

[3] = tested on: collagen induction arthritis model; experiment: Experiment 2: collagen induction arthritis model, arthritis index; assay type: in vivo, mice; conditions: 5 mg/head i.p. every other day
Experimental: Clinical symptoms of arthritis of mice in the respective groups were evaluated by one and the same observer using 6 rankings from zero to five (the larger the value is, the worse the symptom is), and the averages per the respective groups were calculated. These evaluations were performed in 0, 3rd, 4th, 5th, 6th, 7th and 8th week after the first immunity The results were shown in FIG. 3 and Table 3.

[4] = tested on: collagen induction arthritis model; experiment: Experiment 2: collagen induction arthritis model, foot pad swelling (foot pad volume); assay type: in vivo, mice; conditions: 5 mg/head i.p. every other day
Experimental: These evaluations were performed in 0, 3rd, 4th, 5th, 6th, 7th and 8th weeks after the first immunity. The values in FIG. 4 are relative values based on the initial hind foot pad volumes.

[5] = tested on: autoimmune encephalomyelitis model; experiment: Experiment 3: autoimmune encephalomyelitis model, clinical score; assay type: in vivo, rats; conditions: group R, 5 mg/Kg of body weight i.p. once a day for 12 days
[6] = Experiment 4: weight changes of rats in autoimmune encephalomyelitis model; assay type: in vivo; conditions: 5 mg/Kg of body weight per injection
Experimental: The immunosuppressive effect of the BL. 1, BL. 2 and […].
The manner of experiment was basically the same as the aforementioned Experiment 3.
However, the number of groups of rats were reduced to five, one of which included the rats to which the BL. 1 was injected, another of which included the rats to which the BL. 2 was injected, another of which included the rats to which the BL. 3 was injected, another of which included the rats to which prednisolone acetate was injected, and another of which included the rats without injection.
The dose per one injection of BL. 1, BL. 2 and BL. 3 was 6 mg/head and in the form of physiological saline.
The dose per one injection of prednisolone acetate was 5 mg/Kg of body weight and in the form of physiological saline.

[7] = extracts of Example 2 / Comparative Example 2 6 and 12.5 mg/head, prednisolone acetate 5 mg/Kg, i.p. every other day, eight weeks
Experimental: DBJ/1J mice were used in the experiment. The mice are divided into six groups, namely, G, H, I, J, K and L, each consisting of six mice.
50 μl (200 μg/head) of the emulsion was then injected to the back neck skin of each of the mice under ether (first immunity).
Three weeks after the first immunity, 50 μl (200 μg/head) of the emulsion was injected to the tail head skin of each of the mice (second immunity).
Prednisolone acetate (produced by Shionogi & Co., Ltd.) which is a control drug was suspended by physiological saline so that the dosage is 5 mg/Kg of body weight, and the obtained suspended solution was injected into the abdominal cavity of each mouse in group L by 1 ml every other day after the first immunity.
The above injections were performed all through the test period (for eight weeks after the first immunity).
The weight of the mice in the respective groups were measured every day after the first immunity and the average weight per each of the groups was calculated.

For `CC(=O)OCC(=O)[C@@]1(O)CC[C@H]2[C@@H]3CCC4=CC(=O)C=C[C@]4(C)[C@H]3[C@@H](O)C[C@@]21C` [prednisolone acetate], the “blood IL-6 level, average of eight mice” value [1] was 26473 picogram per 1 ml serum, the “blood GOT activity level, average of eight mice” value [2] was 350.705 Kermen Units and the “arthritis index (ranking 0-5), group average” value (“arthritis index” for short) ([3]; 3rd week) was 0. For the same compound, the “arthritis index” value ([3]; 4th week) was 0, the “arthritis index” value ([3]; 5th week) was 0 and the “arthritis index” value ([3]; 6th week) was 0. For the same compound, the “arthritis index” value ([3]; 7th week) was 0.125, the “arthritis index” value ([3]; 8th week) was 0.125 and the “arthritis index” value ([3]; Primary immunity) was 0. The “hind foot pad volume, group average, relative to initial volume” value ([4]; 3rd week) was 99.2, the “hind foot pad volume, group average, relative to initial volume” value ([4]; 4th week) was 95.2 and the “hind foot pad volume, group average, relative to initial volume” value ([4]; 5th week) was 101.1. For the same compound, the “hind foot pad volume, group average, relative to initial volume” value ([4]; 6th week) was 102.4, the “hind foot pad volume, group average, relative to initial volume” value ([4]; 7th week) was 95.5 and the “hind foot pad volume, group average, relative to initial volume” value ([4]; 8th week) was 97.9. For the same compound, the “hind foot pad volume, group average, relative to initial volume” value ([4]; Primary immunity) was 100, the “time at which a few rats developed encephalomyelitis” value [5] was 8-11 days after the injection of emulsion and the “weight increase compared to the other groups (FIG. 6, words)” value [6] was “had the least increase”. For the same compound, the “average weight of mice (FIG. 2)” value [7] was “reduced significantly”.

— US6992068B2 (Gifu Shellac Mfg., Co., Ltd., priority 2000, dated 2006)
